ChEMBL document CHEMBL3885881, “DrugMatrix”

Species on record: Rattus norvegicus
Assay: DrugMatrix - Regimen: Daily Repeat
Assay type: toxicity, organism-based, Sprague-Dawley
Design: regimen Daily Repeat, gender Male, age 6-8 weeks
Conditions: in vivo, iv, vehicle 100 % SALINE; for ABSOLUTE BASOPHIL / ABSOLUTE EOSINOPHIL / ABSOLUTE LYMPHOCYTE / ABSOLUTE MONOCYTE / ABSOLUTE SEGMENTED NEUTROPHIL / BASOPHIL / EOSINOPHIL / ERYTHROCYTE COUNT / HEMATOCRIT / HEMOGLOBIN / LEUKOCYTE COUNT / LYMPHOCYTE / MEAN CORPUSCULAR HEMOGLOBIN / MEAN CORPUSCULAR HEMOGLOBIN CONCENTRATION / MEAN CORPUSCULAR VOLUME / MONOCYTE / NEUTROPHIL / NUCLEATED RED BLOOD CELLS / PLATELET COUNT: tissue Blood; for ALANINE AMINOTRANSFERASE / ALBUMIN / ALKALINE PHOSPHATASE / ASPARTATE AMINOTRANSFERASE / BLOOD UREA NITROGEN / CARBON DIOXIDE / CHLORIDE / CHOLESTEROL / CREATINE PHOSPHOKINASE / CREATININE / GLUCOSE / LACTATE DEHYDROGENASE / LIPASE / PHOSPHORUS / POTASSIUM / SODIUM / TOTAL BILIRUBIN / TOTAL PROTEIN / URIC ACID: tissue Plasma
[1] = 10 mg/kg, 120 h, dose level Low, time 5 day
[2] = 350 mg/kg, 72 h, dose level High, time 3 day
[3] = 350 mg/kg, 120 h, dose level High, time 5 day

Compound: O=C(O)P(=O)(O)O [FOSCARNET]
- ABSOLUTE BASOPHIL [1]: 0 CELLS/uL
- ABSOLUTE EOSINOPHIL [1]: 341 CELLS/uL
- ABSOLUTE LYMPHOCYTE [1]: 13776.67 CELLS/uL
- ABSOLUTE MONOCYTE [1]: 353.33 CELLS/uL
- ABSOLUTE SEGMENTED NEUTROPHIL [1]: 929 CELLS/uL
- BASOPHIL [1]: 0%
- EOSINOPHIL [1]: 2%
- ERYTHROCYTE COUNT [1]: 5.8 x10E6/uL
- HEMATOCRIT [1]: 36.87%
- HEMOGLOBIN [1]: 13.6 G/DL
- LEUKOCYTE COUNT [1]: 15.4 x10E3/uL
- LYMPHOCYTE [1]: 89.67%
- MEAN CORPUSCULAR HEMOGLOBIN [1]: 23.47 pg
- MEAN CORPUSCULAR HEMOGLOBIN CONCENTRATION [1]: 36.93 G/DL
- MEAN CORPUSCULAR VOLUME [1]: 63.6 fL
- MONOCYTE [1]: 2.33%
- NEUTROPHIL [1]: 6%
- NUCLEATED RED BLOOD CELLS [1]: 0 /100WBC
- PLATELET COUNT [1]: 1343 x10E3/uL
- ALANINE AMINOTRANSFERASE [1]: 47.67 u/L
- ALBUMIN [1]: 4.3 G/DL
- ALKALINE PHOSPHATASE [1]: 297.67 u/L
- ASPARTATE AMINOTRANSFERASE [1]: 89 u/L
- BLOOD UREA NITROGEN [1]: 17.67 mg/dL
- CARBON DIOXIDE [1]: 23.67 mmol/L
- CHLORIDE [1]: 105 MEQ/L
- CHOLESTEROL [1]: 61.33 mg/dL
- CREATINE PHOSPHOKINASE [1]: 1049.33 u/L
- CREATININE [1]: 0.22 mg/dL
- GLUCOSE [1]: 193.67 mg/dL
- LACTATE DEHYDROGENASE [1]: 149 u/L
- LIPASE [1]: 8 u/L
- PHOSPHORUS [1]: 11.77 mg/dL
- POTASSIUM [1]: 5.32 MEQ/L
- SODIUM [1]: 145.43 MEQ/L
- TOTAL BILIRUBIN [1]: 0.23 mg/dL
- TOTAL PROTEIN [1]: 5.93 G/DL
- URIC ACID [1]: 1.67 mg/dL
- ABSOLUTE BASOPHIL [2]: 0 CELLS/uL
- ABSOLUTE EOSINOPHIL [2]: 0 CELLS/uL
- ABSOLUTE LYMPHOCYTE [2]: 12652 CELLS/uL
- ABSOLUTE MONOCYTE [2]: 325.67 CELLS/uL
- ABSOLUTE SEGMENTED NEUTROPHIL [2]: 1422.33 CELLS/uL
- BASOPHIL [2]: 0%
- EOSINOPHIL [2]: 0%
- ERYTHROCYTE COUNT [2]: 5.36 x10E6/uL
- HEMATOCRIT [2]: 33.47%
- HEMOGLOBIN [2]: 12.6 G/DL
- LEUKOCYTE COUNT [2]: 14.4 x10E3/uL
- LYMPHOCYTE [2]: 88%
- MEAN CORPUSCULAR HEMOGLOBIN [2]: 23.57 pg
- MEAN CORPUSCULAR HEMOGLOBIN CONCENTRATION [2]: 37.67 G/DL
- MEAN CORPUSCULAR VOLUME [2]: 62.47 fL
- MONOCYTE [2]: 2.33%
- NEUTROPHIL [2]: 9.67%
- NUCLEATED RED BLOOD CELLS [2]: 0 /100WBC
- PLATELET COUNT [2]: 1373.67 x10E3/uL
- ALANINE AMINOTRANSFERASE [2]: 45 u/L
- ALBUMIN [2]: 4.13 G/DL
- ALKALINE PHOSPHATASE [2]: 377 u/L
- ASPARTATE AMINOTRANSFERASE [2]: 95.33 u/L
- BLOOD UREA NITROGEN [2]: 15.67 mg/dL
- CARBON DIOXIDE [2]: 26 mmol/L
- CHLORIDE [2]: 102.67 MEQ/L
- CHOLESTEROL [2]: 71 mg/dL
- CREATINE PHOSPHOKINASE [2]: 483.67 u/L
- CREATININE [2]: 0.18 mg/dL
- GLUCOSE [2]: 145.33 mg/dL
- LACTATE DEHYDROGENASE [2]: 795 u/L
- LIPASE [2]: 8.33 u/L
- PHOSPHORUS [2]: 9.37 mg/dL
- POTASSIUM [2]: 6.24 MEQ/L
- SODIUM [2]: 142.23 MEQ/L
- TOTAL BILIRUBIN [2]: 0.2 mg/dL
- TOTAL PROTEIN [2]: 5.57 G/DL
- URIC ACID [2]: 1.27 mg/dL
- ABSOLUTE BASOPHIL [3]: 0 CELLS/uL
- ABSOLUTE EOSINOPHIL [3]: 0 CELLS/uL
- ABSOLUTE LYMPHOCYTE [3]: 12914 CELLS/uL
- ABSOLUTE MONOCYTE [3]: 384.67 CELLS/uL
- ABSOLUTE SEGMENTED NEUTROPHIL [3]: 1034.67 CELLS/uL
- BASOPHIL [3]: 0%
- EOSINOPHIL [3]: 0%
- ERYTHROCYTE COUNT [3]: 5.17 x10E6/uL
- HEMATOCRIT [3]: 33.93%
- HEMOGLOBIN [3]: 13.03 G/DL
- LEUKOCYTE COUNT [3]: 14.33 x10E3/uL
- LYMPHOCYTE [3]: 90.33%
- MEAN CORPUSCULAR HEMOGLOBIN [3]: 25.2 pg
- MEAN CORPUSCULAR HEMOGLOBIN CONCENTRATION [3]: 38.4 G/DL
- MEAN CORPUSCULAR VOLUME [3]: 65.67 fL
- MONOCYTE [3]: 2.67%
- NEUTROPHIL [3]: 7%
- NUCLEATED RED BLOOD CELLS [3]: 0 /100WBC
- PLATELET COUNT [3]: 1324.67 x10E3/uL
- ALANINE AMINOTRANSFERASE [3]: 45 u/L
- ALBUMIN [3]: 4.13 G/DL
- ALKALINE PHOSPHATASE [3]: 385.67 u/L
- ASPARTATE AMINOTRANSFERASE [3]: 74.67 u/L
- BLOOD UREA NITROGEN [3]: 19 mg/dL
- CARBON DIOXIDE [3]: 28.67 mmol/L
- CHLORIDE [3]: 103.67 MEQ/L
- CHOLESTEROL [3]: 69.33 mg/dL
- CREATINE PHOSPHOKINASE [3]: 209.67 u/L
- CREATININE [3]: 0.22 mg/dL
- GLUCOSE [3]: 170 mg/dL
- LACTATE DEHYDROGENASE [3]: 103.33 u/L
- LIPASE [3]: 9 u/L
- PHOSPHORUS [3]: 10.83 mg/dL
- POTASSIUM [3]: 6.68 MEQ/L
- SODIUM [3]: 143.67 MEQ/L
- TOTAL BILIRUBIN [3]: 0.23 mg/dL
- TOTAL PROTEIN [3]: 5.9 G/DL
- URIC ACID [3]: 1.53 mg/dL
